Reference: patent publication US20150291598A1 (NOVARTIS AG, priority 2012, published 2015)
pEC50: −log10 of the molar value.

These compounds were tested on P. falciparum (NF54 or 3D7 strain) (assay: Assay for P. falciparum proliferation in infected human blood cells (SYBR Green)). Conditions: Plasmodium falciparum, Erythrocyte, 72 h, NF54 or 3D7 infected human erythrocytes, 72 hours; read-out: EC50 (nM), inhibitory efficacy in delaying P. falciparum proliferation in infected human blood cells.
Assay type: cell-based, Plasmodium falciparum
In short: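 NF54 or 3D7 parasites in O+ human erythrocytes at 2.5% hematocrit and 0.3% parasitemia final, exposed to compounds 72 h at 37 °C under 93% N2/4% CO2/3% O2.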

| EC50 | Structure (SMILES) |
| --- | --- |
| 276 nM | CN(C(=O)c1cn2c(-c3ccc4[nH]ccc4c3)cnc2cn1)c1ccc(C#N)cc1 [Compound 428, N-(4-cyanophenyl)-3-(1H-indol-5-yl)-N-methylimidazo[1,2-a]pyrazine-6-carboxamide] |
| 313 nM | CN(C(=O)c1cn2c(-c3ccc(OC(F)F)cc3)cnc2cn1)c1ccc(Cl)nc1 [Compound 429, N-(6-chloropyridin-3-yl)-3-[4-(difluoromethoxy)phenyl]-N-methylimidazo[1,2-a]pyrazine-6-carboxamide] |
| 17 nM | COc1cc(F)ccc1N(C)C(=O)c1cn2c(-c3ccc(C(F)(F)F)cc3)cnc2cn1 [Compound 430, N-(4-fluoro-2-methoxyphenyl)-N-methyl-3-[4(trifluoromethyl)phenyl]imidazo[1,2-a]pyrazine] |
| 82 nM | COc1ccc(-c2cnc3cnc(C(=O)N(C)c4ccc(F)c(F)c4)cn23)cc1 [Compound 431, N-(3,4-difluorophenyl)-3-(4-methoxyphenyl)-N-methylimidazo[1,2-a]pyrazine-6-carboxamide] |
| 79 nM | Cc1ccc(-c2cnc3cnc(C(=O)N(C)c4ccc(Cl)cc4)cn23)cc1 [Compound 432, N-(4-chlorophenyl)-N-methyl-3-(4-methylphenyl)imidazo[1,2-a]pyrazine-6-carboxamide] |
| 31 nM | CN(C(=O)c1cn2c(-c3ccc(OC(F)F)cc3)cnc2cn1)c1ccc(F)cc1 [Compound 433, 3-[4-(difluoromethoxy)phenyl]-N-(4-fluorophenyl)-N-methylimidazo[1,2-a]pyrazine-6-carboxamide] |
| 7090 nM | CN(C(=O)c1cn2c(-c3ccc(C(F)(F)F)cc3)cnc2cn1)c1ncc(Br)cn1 [Compound 434, N-(5-bromopyrimidin-2-yl)-N-methyl-3-[4-(trifluoromethyl)phenyl]imidazo[1,2-a]pyrazine-6-carboxamide] |
| 214 nM | CN(C(=O)c1cn2c(-c3ccc(C(F)(F)F)cc3)cnc2cn1)c1ccc(Cl)cn1 [Compound 435, N-(5-chloropyridin-2-yl)-N-methyl-3-[4-(trifluoromethyl)phenyl]imidazo[1,2-a]pyrazine-6-carboxamide] |
| 9300 nM | CC(C)Oc1ccc(N(C)C(=O)c2cn3c(-c4ccc(C(F)(F)F)cc4)cnc3cn2)cc1 [Compound 436, N-methyl-N-[4-(propan-2-yloxy)phenyl]-3-[4-(trifluoromethyl)phenyl]imidazo[1,2-a]pyrazine-6-carboxamide] |
| 176 nM | CN(C)c1ccc(-c2cnc3cnc(CN(C)c4ccc(C#N)cc4)cn23)cc1 [Compound 437, 4-[({3-[4-(dimethylamino)phenyl]imidazo[1,2-a]pyrazin-6-yl}methyl)(methyl)amino]benzonitrile] |
| > 10000 nM | CN(C)c1cccc(-c2cnc3cnc(C(=O)N(C)c4ccc(C#N)cc4)cn23)c1 [Compound 438, N-(4-cyanophenyl)-3-[3-(dimethylamino)phenyl]-N-methylimidazo[1,2-a]pyrazine-6-carboxamide] |
| 2760 nM | CN(C(=O)c1cn2c(-c3ccc(Cl)nc3)cnc2cn1)c1ccc(C#N)cc1 [Compound 439, 3-(6-chloropyridin-3-yl)-N-(4-cyanophenyl)-N-methylimidazo[1,2-a]pyrazine-6-carboxamide] |
| 140 nM | COc1cccc(N(C)C(=O)c2cn3c(-c4ccc(C(F)(F)F)cc4)cnc3cn2)c1 [Compound 440, N-(3-methoxyphenyl)-N-methyl-3-[4-(trifluoromethyl)phenyl]imidazo[1,2-a]pyrazine-6-carboxamide] |
| 6500 nM | COc1ccc(-c2cnc3cnc(C(=O)N(C)c4ccc(C#N)cc4)cn23)c(C)c1 [Compound 441, N-(4-cyanophenyl)-3-(4-methoxy-2-methylphenyl)-N-methylimidazo[1,2-a]pyrazine-6-carboxamide] |
| 604 nM | O=C(Nc1nc2cccc(Cl)c2s1)c1cn2c(-c3ccc(C(F)(F)F)cc3)cnc2cn1 [Compound 442, N-(7-chloro-1,3-benzothiazol-2-yl)-3-[4-(trifluoromethyl)phenyl]imidazo[1,2-a]pyrazine-6-carboxamide] |
| 9 nM | CNc1nnc(-c2ccc(-c3cnc4cnc(C(=O)N(C)c5ccc(C#N)cc5)cn34)cc2)s1 [Compound 476, N-(4-cyanophenyl)-N-methyl-3-{4-[5-(methylamino)-1,3,4-thiadiazol-2-yl]phenyl}imidazo[1,2-a]pyrazine-6-carboxamide] |
| 31 nM | CNc1nnc(-c2ccc(-c3cnc4cnc(C(=O)N(C)c5ccc(F)cc5)cn34)cc2)o1 [Compound 478, N-(4-fluorophenyl)-N-methyl-3-{4-[5-(methylamino)-1,3,4-oxadiazol-2-yl]phenyl}imidazo[1,2-a]pyrazine-6-carboxamide] |

| EC50 | Structure (SMILES) |
| --- | --- |
| 35 nM | CN(Cc1cn2c(-c3ccc(OC(F)F)cc3)cnc2cn1)c1ccc(C#N)cc1 [Compound 479, 4-[({3-[4-(difluoromethoxy)phenyl]imidazo[1,2-a]pyrazin-6-yl}methyl)(methyl)amino]benzonitrile] |
| 25 nM | CN(C(=O)c1cn2c(-c3ccc4c(cnn4C)c3)cnc2cn1)c1ccc(Cl)cc1 [Compound 480, N-(4-chlorophenyl)-N-methyl-3-(1-methyl-1H-indazol-5-yl)imidazo[1,2-a]pyrazine-6-carboxamide] |
| 34 nM | CN(C(=O)c1cn2c(-c3ccc(-c4ccn[nH]4)cc3)cnc2cn1)c1ccc(C#N)cc1 [Compound 481, N-(4-cyanophenyl)-N-methyl-3-[4-(1H-pyrazol-5-yl)phenyl]imidazo[1,2-a]pyrazine-6-carboxamide] |
| 9 nM | CNc1nnc(-c2ccc(-c3cnc4cnc(C(=O)N(C)c5ccc(Cl)cc5)cn34)cc2)o1 [Compound 483, N-(4-chlorophenyl)-N-methyl-3-{4-[5-(methylamino)-1,3,4-oxadiazol-2-yl]phenyl}imidazo[1,2-a]pyrazine-6-carboxamide] |
| 20 nM | CN(C(=O)c1cn2c(-c3ccc(-c4cc[nH]n4)cc3)cnc2cn1)c1ccc(C#N)cc1 [Compound 484, N-(4-cyanophenyl)-N-methyl-3-[4-(1H-pyrazol-3-yl)phenyl]imidazo[1,2-a]pyrazine-6-carboxamide] |
| 54 nM | CC(=O)Nc1ccc(-c2cnc3cnc(C(=O)N(C)c4ccc(C#N)cc4)cn23)cc1 [Compound 485, N-(4-cyanophenyl)-3-(4-acetamidophenyl)-N-methylimidazo[1,2-a]pyrazine-6-carboxamide] |
| 522 nM | CN(C(=O)c1cn2c(-c3ccc4c(cnn4C)c3)cnc2cn1)c1ccc(Cl)nc1 [Compound 489, N-(6-chloropyridin-3-yl)-N-methyl-3-(1-methyl-1H-indazol-5-yl)imidazo[1,2-a]pyrazine-6-carboxamide] |
| 293 nM | CN(C(=O)c1cn2c(-c3ccc(C(F)(F)F)cc3)cnc2cn1)c1cc(F)ccn1 [Compound 490, N-(4-fluoropyridin-2-yl)-N-methyl-3-[4-(trifluoromethyl)phenyl]imidazo[1,2-a]pyrazine-6-carboxamide] |
| 377 nM | COc1ncccc1N(C)C(=O)c1cn2c(-c3ccc(C(F)(F)F)cc3)cnc2cn1 [Compound 492, N-(2-methoxypyridin-3-yl)-N-methyl-3-[4-(trifluoromethyl)phenyl]imidazo[1,2-a]pyrazine-6-carboxamide] |
| 529 nM | CN(C(=O)c1cn2c(-c3ccc(-c4nncs4)cc3)cnc2cn1)c1ccc(C#N)cc1 [Compound 493, N-(4-cyanophenyl)-N-methyl-3-[4-(1,3,4-thiadiazol-2-yl)phenyl]imidazo[1,2-a]pyrazine-6-carboxamide] |
| 3350 nM | O=C(c1cn2c(-c3ccc(C(F)(F)F)cc3)cnc2cn1)N1CCS(=O)(=O)c2ccccc21 [Compound 494, (1,1-dioxido-2H-benzo[b][1,4]thiazin-4(3H)-yl)(3-(4-(trifluoromethyl)phenyl)imidazo[1,2-a]pyrazin-6-yl)methanone] |
| 2840 nM | CN(C(=O)c1cn2c(-c3ccc(C(F)(F)F)cc3)cnc2cn1)c1cnc(Cl)s1 [Compound 496, N-(2-chloro-1,3-thiazol-5-yl)-N-methyl-3-[4 (trifluoromethyl)phenyl]imidazo[1,2-a]pyrazine-6-carboxamide] |
| > 9320 nM | O=C1CN(C(=O)c2cn3c(-c4ccc(C(F)(F)F)cc4)cnc3cn2)c2ccccc2N1 [Compound 497, 4-({3-[4-(trifluoromethyl)phenyl]imidazo[1,2-a]pyrazin-6-yl}carbonyl)-1,2,3,4-tetrahydroquinoxalin-2-one] |
| 5690 nM | CN(C(=O)c1cncnc1)c1cn2c(-c3ccc(C(F)(F)F)cc3)cnc2cn1 [Compound 498, N-methyl-N-{3-[4-(trifluoromethyl)phenyl]imidazo[1,2-a]pyrazin-6-yl}pyrimidine-5-carboxamide] |
| 4510 nM | CN(C(=O)c1cn2c(-c3ccc(C(F)(F)F)cc3)cnc2cn1)c1ccc(-c2ccccc2)nc1 [Compound 499, N-methyl-N-(6-phenylpyridin-3-yl)-3-[4-(trifluoromethyl)phenyl]imidazo[1,2-a]pyrazine-6-carboxamide] |
| 353 nM | CN(C(=O)c1cn2c(-c3ccc(C(F)(F)F)cc3)cnc2cn1)c1ccc(C(F)(F)F)cc1 [Compound 500, N-methyl-N,3-bis[4-(trifluoromethyl)phenyl]imidazo[1,2-a]pyrazine-6-carboxamide] |
| 1450 nM | CN(C(=O)c1cn2c(-c3ccc(C(F)(F)F)cc3)cnc2cn1)c1ccc(S(C)(=O)=O)cc1 [Compound 501, N-(4-methanesulfonylphenyl)-N-methyl-3-[4-(trifluoromethyl)phenyl]imidazo[1,2-a]pyrazine-6-carboxamide] |

Same assay, conditions: Plasmodium falciparum, Erythrocyte, 72 h, read-out: EC50 (nM), inhibitory efficacy in delaying P. falciparum proliferation in infected human blood cells

| Structure (SMILES) | EC50 |
| --- | --- |
| O=C(Nc1ccc(C(F)(F)F)cc1)c1cn2c(-c3ccc(C(F)(F)F)cc3)cnc2cn1 [Compound 445, N,3-bis[4-(trifluoromethyl)phenyl]imidazo[1,2-a]pyrazine-6-carboxamide] | > 10000 nM |

Same assay, conditions: Plasmodium falciparum, Erythrocyte, infected human red blood cells; read-out: EC50, P. falciparum Proliferation Assay

| pEC50 | Structure (SMILES) |
| --- | --- |
| > 7.30 | CNc1nnc(-c2ccc(-c3cnc4cnc(C(=O)N(C)c5ccc(F)cc5)cn34)cc2)o1 [Compound 478, N-(4-fluorophenyl)-N-methyl-3-{4-[5-(methylamino)-1,3,4-oxadiazol-2-yl]phenyl}imidazo[1,2-a]pyrazine-6-carboxamide] |
| > 7.30 | CNc1nnc(-c2ccc(-c3cnc4cnc(C(=O)N(C)c5ccc(Cl)cc5)cn34)cc2)o1 [Compound 483, N-(4-chlorophenyl)-N-methyl-3-{4-[5-(methylamino)-1,3,4-oxadiazol-2-yl]phenyl}imidazo[1,2-a]pyrazine-6-carboxamide] |
